Legend:
[1] = molecular target: 5-hydroxytryptamine receptor 6 (Homo sapiens) (UniProt P50406); assay: Selectivity interaction (GPCR panel (PDSP screen)) EUB0001079a HTR6; conditions: at 10 µM
[2] = molecular target: Beta-2 adrenergic receptor (Homo sapiens, UniProt P07550); assay: Selectivity interaction (Beta 2 adrenergic receptor assay, human recombinant ) EUB0000877a ADRB2
[3] = molecular target: Mitogen-activated protein kinase 14 (Homo sapiens, UniProt Q16539); assay: Selectivity interaction (Kinase panel (33PanQinase(R) Activity Assay)) EUB0000877a MAPK14
[4] = molecular target: 4-aminobutyrate aminotransferase, mitochondrial (Homo sapiens, UniProt P80404); assay: Selectivity interaction (GPCR panel (PDSP screen)) EUB0000311b ABAT; conditions: at 10 µM
[5] = molecular target: T1, Dual specificity mitogen-activated protein kinase kinase 4 (Homo sapiens) (UniProt P45985); assay: Selectivity interaction (ActivX KiNativ screen (kinase selectivity in THP-1 cell lysates)) EUB0000639a MAP2K4; assay type: subcellular; conditions: lysate, at 0.04 µM
T1 sequence (whole entry): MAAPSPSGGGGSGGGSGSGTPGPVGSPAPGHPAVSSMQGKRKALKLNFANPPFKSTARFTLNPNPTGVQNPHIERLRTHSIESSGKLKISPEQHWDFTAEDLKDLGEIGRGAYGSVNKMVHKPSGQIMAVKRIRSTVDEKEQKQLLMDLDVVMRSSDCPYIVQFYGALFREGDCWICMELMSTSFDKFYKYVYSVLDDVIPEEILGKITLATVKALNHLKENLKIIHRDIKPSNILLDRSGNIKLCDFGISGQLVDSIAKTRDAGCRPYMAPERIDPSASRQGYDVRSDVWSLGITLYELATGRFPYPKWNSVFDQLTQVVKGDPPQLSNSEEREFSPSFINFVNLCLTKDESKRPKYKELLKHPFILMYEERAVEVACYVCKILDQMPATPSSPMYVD

[6] = molecular target: Mitogen-activated protein kinase kinase kinase 4 (Homo sapiens) (UniProt Q9Y6R4); assay: Selectivity interaction (ActivX KiNativ screen (kinase selectivity in THP-1 cell lysates)) EUB0000639a MAP3K4; assay type: subcellular; conditions: lysate
[7] = molecular target: T2, Serine/threonine-protein kinase Nek1 (Homo sapiens) (UniProt Q96PY6); assay: Selectivity interaction (KinomeScan (DiscoverX)) EUB0000607a NEK1; conditions: at 10 µM
T2 sequence (whole entry): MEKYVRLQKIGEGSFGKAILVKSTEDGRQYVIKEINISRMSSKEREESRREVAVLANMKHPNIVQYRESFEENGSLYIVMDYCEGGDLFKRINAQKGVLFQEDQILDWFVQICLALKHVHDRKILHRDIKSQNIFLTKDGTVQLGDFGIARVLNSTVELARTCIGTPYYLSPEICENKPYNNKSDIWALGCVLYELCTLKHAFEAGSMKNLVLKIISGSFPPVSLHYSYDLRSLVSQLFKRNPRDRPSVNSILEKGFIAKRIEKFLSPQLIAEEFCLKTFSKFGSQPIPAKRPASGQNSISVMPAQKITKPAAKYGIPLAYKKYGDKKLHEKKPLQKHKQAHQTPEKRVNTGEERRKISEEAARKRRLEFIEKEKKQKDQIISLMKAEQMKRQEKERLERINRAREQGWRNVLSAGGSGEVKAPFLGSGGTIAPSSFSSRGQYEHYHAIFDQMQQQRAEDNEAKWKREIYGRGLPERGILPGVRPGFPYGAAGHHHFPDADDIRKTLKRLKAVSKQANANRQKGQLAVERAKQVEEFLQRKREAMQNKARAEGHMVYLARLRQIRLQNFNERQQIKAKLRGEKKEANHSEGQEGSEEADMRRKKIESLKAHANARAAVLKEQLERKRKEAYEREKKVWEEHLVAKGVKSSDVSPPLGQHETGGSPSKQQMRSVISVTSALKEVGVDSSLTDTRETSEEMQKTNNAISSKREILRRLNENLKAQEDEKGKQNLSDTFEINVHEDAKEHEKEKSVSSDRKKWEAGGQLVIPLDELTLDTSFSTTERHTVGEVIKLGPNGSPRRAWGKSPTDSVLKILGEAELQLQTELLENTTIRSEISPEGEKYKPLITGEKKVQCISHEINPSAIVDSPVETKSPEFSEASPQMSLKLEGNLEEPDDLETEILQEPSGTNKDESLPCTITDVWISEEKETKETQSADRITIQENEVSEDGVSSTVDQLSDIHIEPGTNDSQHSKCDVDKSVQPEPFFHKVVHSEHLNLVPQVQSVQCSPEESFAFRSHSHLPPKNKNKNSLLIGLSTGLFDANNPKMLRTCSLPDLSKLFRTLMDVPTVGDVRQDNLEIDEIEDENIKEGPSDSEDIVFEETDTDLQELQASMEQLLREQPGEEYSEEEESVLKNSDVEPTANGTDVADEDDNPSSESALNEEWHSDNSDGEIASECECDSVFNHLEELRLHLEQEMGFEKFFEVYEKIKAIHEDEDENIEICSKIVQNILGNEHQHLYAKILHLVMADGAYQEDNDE

[8] = test system: Epidermal growth factor receptor (Homo sapiens), P00533 [UNDEFINED MUTATION]; assay: Selectivity interaction (KinomeScan (DiscoverX)) EUB0000045b EGFR; conditions: at 10 µM
Chain of Epidermal growth factor receptor (Homo sapiens), P00533 [UNDEFINED MUTATION] (P00533 whole entry, looked up, change not shown): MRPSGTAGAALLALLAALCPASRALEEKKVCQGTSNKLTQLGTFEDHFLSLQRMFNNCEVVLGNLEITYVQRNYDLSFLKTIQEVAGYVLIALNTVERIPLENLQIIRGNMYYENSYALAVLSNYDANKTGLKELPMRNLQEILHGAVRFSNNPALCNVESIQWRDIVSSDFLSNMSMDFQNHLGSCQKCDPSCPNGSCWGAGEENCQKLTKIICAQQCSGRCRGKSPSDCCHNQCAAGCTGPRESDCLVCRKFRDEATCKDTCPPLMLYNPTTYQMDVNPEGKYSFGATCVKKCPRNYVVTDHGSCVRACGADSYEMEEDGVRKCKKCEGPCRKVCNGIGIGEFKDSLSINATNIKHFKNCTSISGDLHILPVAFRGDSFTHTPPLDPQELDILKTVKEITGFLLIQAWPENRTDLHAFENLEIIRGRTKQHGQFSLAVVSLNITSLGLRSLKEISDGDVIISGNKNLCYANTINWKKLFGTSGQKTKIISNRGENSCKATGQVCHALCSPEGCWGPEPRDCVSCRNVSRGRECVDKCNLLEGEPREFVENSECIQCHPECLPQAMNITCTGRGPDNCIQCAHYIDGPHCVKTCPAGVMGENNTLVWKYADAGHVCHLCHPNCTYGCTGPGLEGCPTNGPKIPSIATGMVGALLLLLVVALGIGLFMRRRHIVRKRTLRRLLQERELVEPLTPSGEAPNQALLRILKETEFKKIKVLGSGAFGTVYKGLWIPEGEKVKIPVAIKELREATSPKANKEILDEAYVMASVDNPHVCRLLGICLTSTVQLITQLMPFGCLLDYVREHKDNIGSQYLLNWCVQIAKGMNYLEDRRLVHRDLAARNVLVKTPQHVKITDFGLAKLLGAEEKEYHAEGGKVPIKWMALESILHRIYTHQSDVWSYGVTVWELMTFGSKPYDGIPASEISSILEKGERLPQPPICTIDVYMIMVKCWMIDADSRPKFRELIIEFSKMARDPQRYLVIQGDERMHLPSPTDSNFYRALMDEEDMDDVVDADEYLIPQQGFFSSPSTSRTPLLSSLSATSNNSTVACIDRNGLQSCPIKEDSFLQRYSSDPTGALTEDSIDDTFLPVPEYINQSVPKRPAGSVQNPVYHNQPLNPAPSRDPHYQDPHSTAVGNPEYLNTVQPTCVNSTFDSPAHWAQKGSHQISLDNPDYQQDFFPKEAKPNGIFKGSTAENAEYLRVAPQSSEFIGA

Chain of Mitogen-activated protein kinase kinase kinase 4 (Homo sapiens) (Q9Y6R4 whole entry): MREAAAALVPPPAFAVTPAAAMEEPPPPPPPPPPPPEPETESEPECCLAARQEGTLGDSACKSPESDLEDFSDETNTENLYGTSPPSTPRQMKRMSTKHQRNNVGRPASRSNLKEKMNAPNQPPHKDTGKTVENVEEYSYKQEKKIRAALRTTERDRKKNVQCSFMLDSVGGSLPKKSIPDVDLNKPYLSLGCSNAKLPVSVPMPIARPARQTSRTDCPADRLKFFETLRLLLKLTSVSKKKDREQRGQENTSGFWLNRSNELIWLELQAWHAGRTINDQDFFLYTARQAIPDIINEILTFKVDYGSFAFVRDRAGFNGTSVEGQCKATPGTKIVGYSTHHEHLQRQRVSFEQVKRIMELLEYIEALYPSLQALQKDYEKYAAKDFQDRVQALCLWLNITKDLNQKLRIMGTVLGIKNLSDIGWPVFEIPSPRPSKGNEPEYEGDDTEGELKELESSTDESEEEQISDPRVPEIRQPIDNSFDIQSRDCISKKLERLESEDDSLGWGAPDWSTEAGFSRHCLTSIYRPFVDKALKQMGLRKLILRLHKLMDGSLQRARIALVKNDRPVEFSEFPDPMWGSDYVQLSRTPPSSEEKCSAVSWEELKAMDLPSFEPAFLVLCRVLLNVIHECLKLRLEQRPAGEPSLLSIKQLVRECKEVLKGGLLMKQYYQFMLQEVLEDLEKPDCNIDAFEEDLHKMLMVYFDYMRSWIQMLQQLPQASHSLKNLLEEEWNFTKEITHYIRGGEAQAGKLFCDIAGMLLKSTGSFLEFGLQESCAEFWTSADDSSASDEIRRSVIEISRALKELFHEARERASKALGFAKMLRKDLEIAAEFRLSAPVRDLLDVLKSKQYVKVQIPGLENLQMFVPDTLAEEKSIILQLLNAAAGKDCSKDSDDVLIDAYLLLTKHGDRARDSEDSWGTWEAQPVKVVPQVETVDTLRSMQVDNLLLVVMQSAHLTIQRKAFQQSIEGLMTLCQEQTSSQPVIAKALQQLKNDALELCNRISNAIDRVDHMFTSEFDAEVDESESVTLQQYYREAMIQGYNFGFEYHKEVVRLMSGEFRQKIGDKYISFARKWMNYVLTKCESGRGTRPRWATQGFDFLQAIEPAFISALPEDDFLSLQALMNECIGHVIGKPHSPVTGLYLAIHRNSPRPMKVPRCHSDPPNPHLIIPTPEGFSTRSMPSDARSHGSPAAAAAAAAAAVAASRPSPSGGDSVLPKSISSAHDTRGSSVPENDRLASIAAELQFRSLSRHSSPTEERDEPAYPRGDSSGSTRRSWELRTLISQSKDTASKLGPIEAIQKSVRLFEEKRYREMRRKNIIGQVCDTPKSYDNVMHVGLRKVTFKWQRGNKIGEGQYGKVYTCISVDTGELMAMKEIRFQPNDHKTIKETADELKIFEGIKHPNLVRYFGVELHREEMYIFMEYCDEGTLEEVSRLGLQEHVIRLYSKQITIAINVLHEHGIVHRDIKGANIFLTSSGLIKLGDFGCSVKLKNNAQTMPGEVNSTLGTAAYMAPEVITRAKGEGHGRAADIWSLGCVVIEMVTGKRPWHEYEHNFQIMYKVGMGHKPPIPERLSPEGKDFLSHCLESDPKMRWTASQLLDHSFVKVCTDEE
Chain of Beta-2 adrenergic receptor (P07550 whole entry): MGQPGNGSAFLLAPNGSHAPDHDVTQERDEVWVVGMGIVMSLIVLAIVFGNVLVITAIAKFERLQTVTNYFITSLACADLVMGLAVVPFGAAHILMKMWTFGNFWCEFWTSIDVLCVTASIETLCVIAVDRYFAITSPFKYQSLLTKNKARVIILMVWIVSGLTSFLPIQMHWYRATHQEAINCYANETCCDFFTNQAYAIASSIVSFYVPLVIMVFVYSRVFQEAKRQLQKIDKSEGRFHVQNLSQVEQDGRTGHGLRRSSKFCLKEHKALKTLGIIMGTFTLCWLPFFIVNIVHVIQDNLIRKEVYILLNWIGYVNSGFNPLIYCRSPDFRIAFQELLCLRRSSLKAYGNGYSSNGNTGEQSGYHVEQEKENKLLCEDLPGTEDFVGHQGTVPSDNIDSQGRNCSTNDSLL
Chain of 5-hydroxytryptamine receptor 6 (Homo sapiens) (P50406 whole entry): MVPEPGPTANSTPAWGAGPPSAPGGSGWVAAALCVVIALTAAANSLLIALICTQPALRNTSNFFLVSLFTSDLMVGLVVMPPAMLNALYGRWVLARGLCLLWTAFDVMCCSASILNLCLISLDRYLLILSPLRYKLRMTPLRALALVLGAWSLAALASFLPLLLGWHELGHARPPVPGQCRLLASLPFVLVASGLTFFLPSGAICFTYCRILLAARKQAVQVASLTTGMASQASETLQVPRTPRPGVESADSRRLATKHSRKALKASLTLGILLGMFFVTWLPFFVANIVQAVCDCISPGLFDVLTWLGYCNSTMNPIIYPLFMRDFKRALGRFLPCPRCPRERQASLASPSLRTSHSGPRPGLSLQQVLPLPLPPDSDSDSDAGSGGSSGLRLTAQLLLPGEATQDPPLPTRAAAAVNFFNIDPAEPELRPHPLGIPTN
Chain of 4-aminobutyrate aminotransferase, mitochondrial (P80404 whole entry): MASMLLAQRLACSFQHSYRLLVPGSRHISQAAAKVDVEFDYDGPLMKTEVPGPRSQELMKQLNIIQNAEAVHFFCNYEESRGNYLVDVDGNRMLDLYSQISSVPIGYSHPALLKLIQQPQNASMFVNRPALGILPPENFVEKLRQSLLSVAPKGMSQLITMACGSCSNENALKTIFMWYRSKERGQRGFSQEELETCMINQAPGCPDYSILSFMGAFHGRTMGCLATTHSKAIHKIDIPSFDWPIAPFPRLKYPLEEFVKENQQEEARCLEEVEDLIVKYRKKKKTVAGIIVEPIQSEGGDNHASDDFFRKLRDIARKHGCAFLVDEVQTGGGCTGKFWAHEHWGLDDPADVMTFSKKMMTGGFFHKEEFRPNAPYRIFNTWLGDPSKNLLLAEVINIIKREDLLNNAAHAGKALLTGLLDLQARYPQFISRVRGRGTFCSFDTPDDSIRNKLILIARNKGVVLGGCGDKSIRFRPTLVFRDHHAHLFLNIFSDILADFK
Chain of Mitogen-activated protein kinase 14 (Q16539 whole entry): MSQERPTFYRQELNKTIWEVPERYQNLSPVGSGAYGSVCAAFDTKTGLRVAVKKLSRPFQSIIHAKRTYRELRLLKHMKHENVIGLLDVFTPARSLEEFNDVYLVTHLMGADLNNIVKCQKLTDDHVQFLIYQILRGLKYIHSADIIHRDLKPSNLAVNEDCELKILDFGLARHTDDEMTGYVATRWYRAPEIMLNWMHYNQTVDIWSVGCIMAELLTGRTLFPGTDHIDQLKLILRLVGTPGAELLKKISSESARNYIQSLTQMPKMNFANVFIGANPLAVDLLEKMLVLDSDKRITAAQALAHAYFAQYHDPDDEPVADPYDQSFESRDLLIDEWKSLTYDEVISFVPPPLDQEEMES

## Nc1cnc(N2CCc3cc(S(=O)(=O)Nc4c(F)cc(Cl)cc4F)cc(N4CCCC4=O)c32)nc1 [TP-020n]
[1]
  % of inhibition: -26.7%

## CCC(=O)N1CC[C@H](Nc2ncnc3c2CN(c2cnc(OC)c(C(F)(F)F)c2)CC3)C1 [LENIOLISIB]
[2]
  IC50: > 30 µM
[3]
  IC50: > 10 µM

## CCc1ccccc1C(=O)Nc1n[nH]c2c(C)c(F)c(C3C(C#N)=C(C)N(C)C(C)=C3C#N)cc12 [BAY-3827]
[4]
  % of inhibition: 85.6%

## CC[C@@H]1[C@H](F)C(=O)N[C@@H]1COc1nccc2cc(C(N)=O)c(OC)cc12 [ZIMLOVISERTIB]
[5]
  % of inhibition: 8%
[6]; at 0.01 µM
  % of inhibition: 18.5%
[6]; at 0.04 µM
  % of inhibition: -5.7%
[6]; at 0.2 µM
  % of inhibition: -1.4%
[6]; at 1 µM
  % of inhibition: -23%
[6]; at 5 µM
  % of inhibition: 6.4%

## CNC(=O)Nc1ccc(-c2nc(N3CC4CCC(C3)O4)c3cnn(C4CCC5(CC4)OCCO5)c3n2)cc1
[7]
  % of control: 100%

## C=CC(=O)Nc1cc(-n2c(=O)ccc3cnc4ccc(-c5ccc(NS(C)(=O)=O)cc5)cc4c32)ccc1C
[8]
  % of control: 65%

— ChEMBL document CHEMBL5465560, “Selectivity Literature for EUbOPEN Chemogenomic Library” (2024)
